{
  "source": "patent US20070185128A1",
  "about": "“Compounds and compositions for treating obesity” (priority 2002, published 2007)",
  "system": "schedule fed male SPRD rat",
  "assay": "Assay (I): efficacy on appetite, schedule-fed rat model, food intake (diet consumed)",
  "assay_type": "in vivo",
  "conditions": "for Diet Consumed 1 hr (mean X of 8 rats): 1 hr after dosing; for Diet Consumed 2 hr (mean X of 8 rats): cumulative at 2 hr after dosing; for Diet Consumed 3 hr (mean X of 8 rats): cumulative at 3 hr after dosing",
  "method": "FIG. 1: Effect on food intake in schedule fed (8 h-13 h) male SPRD rat model as described in assay 1. The rats are dosed ip at 08.00 h with vehicle, sibutramine (3 mg/kg) and (S,S)-6-(4-amino-butyl)-1-biphenyl-4-ylmethyl-3-naphthalen-2-ylmethyl-piperazine-2,5-dione (example 11) (1, 3 or 10 mg/kg). Rat chow and water is available from just post dosing, and food intake is measured every hour from dosing to 3 hours post dosing.\nThe bars indicate the cumulated food intake over time.\nAssay (I) Experimental Protocol for Efficacy Testing on Appetite with MC4 Analogues, Using a Schedule—Fed Rat Model.\nTAC:SPRD @mol rats or Wistar rats from M&B Breeding and Research Centre A/S, Denmark are used for the experiments. The rats have a bodyweight 200-250 g at the start of experiment. The rats arrive at least 10-14 days before start of experiment with a bodyweight of 180-200 g. Each dose of compound is tested in a group of 8 rats. A vehicle group of 8 rats is included in each set of testing.\nWhen the animals arrive they are housed individually. After a habituating period of 4-7 days with free access to food and water, the schedule feeding is initiated. The rats are allowed to eat from 08 am to 01 pm each day. In the remaining period only access to water is allowed. They are kept on this feeding schedule for 8 days before start of experiment. In this period the animals are handled and dosed in the relevant way (ip, po, sc.) with saline at least 3 times. The experiment is conducted in the rat home cages. Immediately before dosing the rats are randomised to the different treatment groups (n=8) by bodyweight. They are dosed according to bodyweight at 08 am, with a 1 ml/kg solution either, ip, po or sc. The dosing time is recorded for each group. Following dosing the rats are returned to their home cages, where they now have access to food and water. The food consumption is recorded individually, each hour for 3 hours. At the end of the experimental session, the animals are euthanised.\nThe individual data are recorded in Microsoft excel sheets. Outliers are excluded after using the Grubbs statistical evaluation test for outliers and the result presented graphically by using the GraphPad Prism program.",
  "data": [
    {"compound": "NCCCC[C@H]1C(=O)N[C@@H](Cc2ccc3ccccc3c2)C(=O)N1Cc1ccc(-c2ccccc2)cc1", "note": "[Example 23, (S,S)-6-(4-Amino-butyl)-1-biphenyl-4-ylmethyl-3-naphthalen-2-ylmethyl-piperazine-2,5-dione]", "values": [
      {"measurement": "Diet Consumed 1 hr (mean X of 8 rats)", "setting": "1 mg/kg i.p.", "result": 2.4, "unit": "Grams"},
      {"measurement": "Diet Consumed 2 hr (mean X of 8 rats)", "setting": "1 mg/kg i.p.", "result": 6.3, "unit": "Grams"},
      {"measurement": "Diet Consumed 3 hr (mean X of 8 rats)", "setting": "1 mg/kg i.p.", "result": 8.4, "unit": "Grams"},
      {"measurement": "Diet Consumed 1 hr (mean X of 8 rats)", "setting": "3 mg/kg i.p.", "result": 3.4, "unit": "Grams"},
      {"measurement": "Diet Consumed 2 hr (mean X of 8 rats)", "setting": "3 mg/kg i.p.", "result": 7.1, "unit": "Grams"},
      {"measurement": "Diet Consumed 3 hr (mean X of 8 rats)", "setting": "3 mg/kg i.p.", "result": 8.5, "unit": "Grams"},
      {"measurement": "Diet Consumed 1 hr (mean X of 8 rats)", "setting": "10 mg/kg i.p.", "result": 2.7, "unit": "Grams"},
      {"measurement": "Diet Consumed 2 hr (mean X of 8 rats)", "setting": "10 mg/kg i.p.", "result": 5.4, "unit": "Grams"},
      {"measurement": "Diet Consumed 3 hr (mean X of 8 rats)", "setting": "10 mg/kg i.p.", "result": 6.3, "unit": "Grams"}
    ]},
    {"compound": "CC(C)CC(N(C)C)C1(c2ccc(Cl)cc2)CCC1", "note": "(stereo not drawn) [Sibutramine, reference compound]", "values": [
      {"measurement": "Diet Consumed 1 hr (mean X of 8 rats)", "setting": "3 mg/kg i.p.", "result": 3.5, "unit": "Grams"},
      {"measurement": "Diet Consumed 2 hr (mean X of 8 rats)", "setting": "3 mg/kg i.p.", "result": 7.0, "unit": "Grams"},
      {"measurement": "Diet Consumed 3 hr (mean X of 8 rats)", "setting": "3 mg/kg i.p.", "result": 9.4, "unit": "Grams"}
    ]}
  ]
}
